The results in this text go back to patent publication US4175125A, “Method for treating methicillin resistant staphylococcus aureus” (Eli Lilly and Company, priority 1978, dated 1979).

This assay deals with methicillin-resistant Staphylococcus aureus. As to the kind of experiment: Gradient plate test (MIC) against methicillin-resistant Staphylococcus aureus. It counts as cell-based. As to conditions: for MIC: Staphylococcus aureus. How it is done: The method used is essentially that described by Bryson and Szybalski in 1952 (Science 116:45-46). The inoculum treatment method used for penicillin resistant Staphylococci was reported by Godzeski et al in Antimicrobial Agents and Chemotherapy, May, 1969, pp. 547-554.
A standard Falcon square plastic petri dish is used. A layer of agar (10 ml.) is poured into one of the square dishes, the dish tipped 5 mm. off the horizontal, and the agar layer allowed to harden in this position. This bottom layer of agar contains the antibiotic, the serum, and/or other material to be tested. The medium is Difco Penassay Agar containing 2 percent agar. We routinely used 4 ml. of human or horse serum for "serum-inactivation" testing. […] Therefore, serum is routinely added only to the bottom layer.
After the bottom, slanted layer of agar medium has hardened, the plate is placed flat and another 10 ml. of medium added and allowed to harden.
The inoculum of resistant Staphylococci, as described, is prepared by diluting the water suspension 1/50 in 0.25 percent agar in sterile water or saline. For Gram negative organisms, an overnight broth culture is diluted 1/50 in the 0.25 percent agar-water. This dilution is thoroughly shaken to evenly suspend the bacteria. To streak the plate, we use a 1 ml. pipet containing an aliquot of the final […] agar dilution. After a little practice, a smooth even stroke of inoculum can be laid down very rapidly. The trick is in the smoothness of the streak--it must be accomplished uniformly and quickly.
After 24 hours incubation at 35°-37° C. the plates are read by simply measuring the length of bacterial growth as a percentage of the entire streak distance which is then converted to the percent of antibiotic concentration in the plate.
Average values of duplicate measurements are calculated and the M.I.C.'s reported are average of 2 streaks on the plate and from 2 to 3 duplicate plates. Eight streaks can be easily placed on each plate. If sharp end points are not obtained, the middle concentration between the beginning of inhibition of the streak to the end of growth is measured. The concentration of the antibiotic under examination is varied from plate to plate in a series as follows: […]
This method of screening penicillins and cephalosporins is quite satisfactory. Control plates containing penicillin and staphcillin or prostaphlin, or other control antibiotic, are used daily for the resistant staphylococcal activity screen. The gradient plate method has shown differences between antibiotics that were not apparent by any other methods of screening. […] We believe that the gradient plate screen is more sensitive to small differences between related antibiotics than other methods and pictures of the plates can provide a permanent record. The method also lends itself readily to modification of specific purposes--e.g., cross gradients.
The compounds listed below are examples of compounds useful in the method of this invention. After the compound name there is given in parentheses, where tested, the minimum inhibitory concentrations (MIC) in micrograms per milliliter (μg/ml) for the compound in the above described gradient plate procedure test against methicillin-resistant Staphylococcus aureus, (in the absence of blood serum/in the presence of 20 percent blood serum).
and pharmaceutically acceptable salts thereof. The abbreviation "s.z." means skip zones.

Where [1] appears, read: in the absence of blood serum, read-out: minimum inhibitory concentration (MIC).
The mark [2] stands for this setting: in the presence of 20 percent blood serum, read-out: minimum inhibitory concentration (MIC).
Where [3] appears, read: in the presence of 20 percent blood serum.

Values after ≈ are worked out from the molar mass of the structure shown. Where a name gives a salt, the structure may show the parent alone. Read-outs that look alike come from different tables or passages of the source. Some results are limits rather than exact numbers.

Consider `CC(=O)OCC1=C(C(=O)O)N2C(=O)C(NC(=O)CSc3cccc(F)c3)C2SC1` (stereo not shown) [7-[2'-(3"-fluorophenylthio)acetamido]cephalosporanic acid], for which the MIC under setting [1] is 10.6 µg/mL (≈ 24.1 µM) and the MIC under setting [2] worked out at 9.3 µg/mL.
The like results for `CC(=O)OCC1=C(C(=O)O)N2C(=O)C(NC(=O)CSc3cc(F)c(Cl)cc3Cl)C2SC1` (stereo not shown) [Example 4, 7(2,4-Dichloro-5-fluoro-phenylthioacetamido)cephalosporanic acid] were, in that order, 3 µg/mL (≈ 5.89 µM) and over 20 µg/mL.
Take `CSCC1=C(C(=O)[O-])N2C(=O)C(NC(=O)CSc3cc(Cl)ccc3Cl)[C@H]2SC1.[Na+]` (stereo partly shown) [3-methylthiomethyl-7-[2'-(2",5"-dichlorophenylthio)acetamido]-3-cephem-4-carboxylic acid, sodium salt]: the MIC (read-out: minimum inhibitory concentration (MIC), in the absence of blood serum) amounted to 12 µg/mL and the MIC (read-out: minimum inhibitory concentration (MIC), in the presence of 20 percent blood serum) came out at 14.4 µg/mL.
`Cn1nnnc1SCC1=C(C(=O)O)N2C(=O)C(NC(=O)CSc3cc(Cl)ccc3Cl)C2SC1` (stereo not shown) [3-(1'-methyl-1'H-tetrazol-5'-ylthiomethyl)-7-[2'-(2",5"-dichlorophenylthio)acetamido]-3-cephem-4-carboxylic acid, dicyclohexylamine salt]: under setting [1], the MIC amounted to 2.3 µg/mL. Under setting [3], the “minimum inhibitory concentration (MIC)” value is “skip zones”.
With `CNC(=O)OCC1=C(C(=O)O)N2C(=O)C(NC(=O)CSc3cc(Cl)ccc3Cl)C2SC1` (stereo not shown) [Example 7, 7(2,5-dichlorophenylmercaptoacetamido)-3-(N-methylcarbamoyloxymethyl)-Δ^3-cephalosphoranic acid], the MIC by setting is: under setting [1], 5.5 µg/mL (≈ 10.9 µM); under setting [2], 18.2 µg/mL.
For `O=C(CSc1cc(Cl)ccc1Cl)NC1C(=O)N2C(C(=O)O)=C(CSc3nn[nH]n3)CSC12` (stereo not shown) [3-(1'H-tetrazol-5'-ylthiomethyl)-7-[2'-(2",5"-dichlorophenylthio)acetamido]-3-cephem-4-carboxylic acid] the same measures were 6.8 µg/mL (≈ 12.7 µM) and over 1 µg/mL.
The like results for `NC(=O)OCC1=C(C(=O)O)N2C(=O)C(NC(=O)CSc3cc(Cl)ccc3Cl)[C@H]2SC1` (stereo partly shown) [3-carbamyloxymethyl-7-[2'-(2",5"-dichlorophenylthio)acetamido]-3-cephem-4-carboxylic acid] were, in that order, 4.1 µg/mL (≈ 8.33 µM) and 1.7 µg/mL.
For `Cn1nnnc1SCC1=C(C(=O)O)N2C(=O)C(NC(=O)CSc3cc(F)c(Cl)cc3Cl)C2SC1` (stereo not shown) [3-(1'-methyl-1'H-tetrazol-5'-ylthiomethyl)-7-[2'-[2",4"-dichloro-5"-fluorophenylthio)acetamido]-3-cephem-4-carboxylic acid, dicyclohexylamine salt] the same measures were 1.9 µg/mL and over 20 µg/mL.
For `Cc1nnc(SCC2=C(C(=O)O)N3C(=O)C(NC(=O)CSc4cc(F)c(Cl)cc4Cl)C3SC2)s1` (stereo not shown) [3-(5'-methyl-1',3',4'-thiadiazol-2'-ylthiomethyl)-7-[2'-(2",4"-dichloro-5"- fluorophenylthio)acetamido]-3-cephem-4-carboxylic acid, sodium salt], the MIC is, setting by setting: under setting [1], 2.3 µg/mL; under setting [2], over 20 µg/mL.
For `O=C(CSc1cc(Cl)ccc1Cl)NC1C(=O)N2C(C(=O)O)=C(CSc3nnc(-c4ccccc4)o3)CSC12` (stereo not shown) [3-[5'-phenyl-1',3',4'-oxadiazol-2'-ylthiomethyl]-7-[2'-(2"-5"-dichlorophenylthio)acetamido]-3-cephem-4-carboxylic acid, dicyclohexylamine salt] the same measures were 0.8 µg/mL and over 1 µg/mL.
On to `Cn1nnnc1SCC1=C(C(=O)O)N2C(=O)C(NC(=O)CSc3cc(Cl)cc(Cl)c3)C2SC1` (stereo not shown) [3-[1'-methyl-1'H-tetrazol-5'-ylthiomethyl]-7-[2'-(3",5"-dichlorophenylthio)acetamido]-3-cephem-4-carboxylic acid, dicyclohexylamine salt], for which, under setting [1], the MIC stood at 2.2 µg/mL. Besides, the “minimum inhibitory concentration (MIC)” value under setting [3] was “skip zones”.
